Results as given in patent publication US20120289501A1, “Benzene-fused 6-membered oxygen-containing heterocyclic derivatives of bicyclic heteroaryls” (NOVARTIS AG, priority 2009, published 2012).

What follows are compounds tested against IGF1R (Homo sapiens, UniProt P08069) (assay: Cellular IGF-1R assay: inhibition of IGF1R phosphorylation in transduced Hek293 cells, capture ELISA (MSD)).
Type: cell-based
Parameters: Hek293 cells transduced with the corresponding receptors; expressed in transfected cells; host or cells: Hek293 (Hek293-IGF1R)
Method: In this assay the activity of the compounds of the invention against Insulin-like growth factor I (IGF-1) induced autophosphorylation of the IGF-IR is determined. The assay is conducted as follows: Compound-mediated inhibition of IGF1R and INSR phosphorylation in Hek293 cells transduced with the corresponding receptors is assessed in a capture ELISA format using the MSD (Meso Scale Discovery) platform. Briefly, 30′000 cells washed and diluted in starvation medium (DMEM high glucose supplemented with 0.1% BSA) are seeded in 90 μL per well into 96-well plates pre-coated with poly-D-lysine (0.1 mg/mL in PBS/0). After 24 h incubation at 37° C. and 5% CO2, dose-response effects are determined with 3-fold serial compound dilutions, starting at 10 μM. The final vehicle concentration is 0.1% DMSO in all wells. Following pre-incubation with compounds for 1 h, receptor phosphorylation is triggered by a 10 min exposure to 1.0 ng/μL IGF for Hek293-IGF1R cells, and 5.0 ng/μL insulin for Hek293-InsR cells. Cell lysis is achieved by addition of 80 μL MSD lysis buffer per aspirated well, incubation on ice for 20 min, and a freeze-thaw cycle. Target phosphorylation is then assessed by transferring volumes corresponding to approx. 6 μg Hek293-IGF1R or 0.6 μg Hek293-InsR lysates to MSD assay plates pre-coated with total-IGF1R or total-InsR Abs, respectively. After incubation for 2 h at rt, wells are exposed for 1 hr to a rabbit monoclonal antibody (CST #3024, 1:1000) detecting pIGF1R(Tyr1135/1136) as well as pINSR(Tyr1150/1151). Immune complexes are detected by a SULFO-Tag™-coupled anti-rabbit IgG antibody in the presence of 150 μL MSD read-buffer. Light emission at 620 nm triggered by application of electric current is recorded on a MSD SectorImager 6000. Acquired raw data (mean Ru-ECL units) are processed in an Excel analysis template. The plate blank (MSD lysis buffer) is subtracted from all data points. The effect of a particular test compound concentration on receptor phosphorylation is expressed relative to the window defined by ligand-stimulated vs unstimulated control cells (set as 100%). IC50 values [nM] are determined using 4-parametric curve-fitting (XLfit software, V4.3.2). Alternatively, the assay can be conducted with a slightly different format; Compound-mediated inhibition of IGF-1R and InsR phosphorylation in HEK293 cells overexpressing the corresponding receptors were assessed by quantitative Western blot using an Odyssey infrared imager as readout.
Compound-mediated inhibition of IGF1R and INSR phosphorylation in Hek293 cells transduced with the corresponding receptors is assessed in a capture ELISA format using the MSD (Meso Scale Discovery) platform. Briefly, 30′000 cells washed and diluted in starvation medium (DMEM high glucose supplemented with 0.1% BSA) are seeded in 90 μL per well into 96-well plates pre-coated with poly-D-lysine (0.1 mg/mL in PBS/O). After 24 h incubation at 37° C. and 5% CO2, dose-response effects are determined with 3-fold serial compound dilutions, starting at 10 μM. The final vehicle concentration is 0.1% DMSO in all wells. Following pre-incubation with compounds for 1 h, receptor phosphorylation is triggered by a 10 min exposure to 1.0 ng/μL IGF for Hek293-IGF1R cells, and 5.0 ng/μL insulin for Hek293-InsR cells. Cell lysis is achieved by addition of 80 μL MSD lysis buffer per aspirated well, incubation on ice for 20 min, and a freeze-thaw cycle. Target phosphorylation is then assessed by transferring volumes corresponding to approx. 6 μg Hek293-IGF1R or 0.6 μg Hek293-lnsR lysates to MSD assay plates pre-coated with total-IGF1R or total-lnsR Abs, respectively. After incubation for 2 h at rt, wells are exposed for 1 hr to a rabbit monoclonal antibody (CST #3024, 1:1000) detecting pIGF1R(Tyr1135/1136) as well as pINSR(Tyr1150/1151). Immune complexes are detected by a SULFO-Tag™-coupled anti-rabbit IgG antibody in the presence of 150 μL MSD read-buffer. […]

IGF1R, sequence (P08069 31-1367): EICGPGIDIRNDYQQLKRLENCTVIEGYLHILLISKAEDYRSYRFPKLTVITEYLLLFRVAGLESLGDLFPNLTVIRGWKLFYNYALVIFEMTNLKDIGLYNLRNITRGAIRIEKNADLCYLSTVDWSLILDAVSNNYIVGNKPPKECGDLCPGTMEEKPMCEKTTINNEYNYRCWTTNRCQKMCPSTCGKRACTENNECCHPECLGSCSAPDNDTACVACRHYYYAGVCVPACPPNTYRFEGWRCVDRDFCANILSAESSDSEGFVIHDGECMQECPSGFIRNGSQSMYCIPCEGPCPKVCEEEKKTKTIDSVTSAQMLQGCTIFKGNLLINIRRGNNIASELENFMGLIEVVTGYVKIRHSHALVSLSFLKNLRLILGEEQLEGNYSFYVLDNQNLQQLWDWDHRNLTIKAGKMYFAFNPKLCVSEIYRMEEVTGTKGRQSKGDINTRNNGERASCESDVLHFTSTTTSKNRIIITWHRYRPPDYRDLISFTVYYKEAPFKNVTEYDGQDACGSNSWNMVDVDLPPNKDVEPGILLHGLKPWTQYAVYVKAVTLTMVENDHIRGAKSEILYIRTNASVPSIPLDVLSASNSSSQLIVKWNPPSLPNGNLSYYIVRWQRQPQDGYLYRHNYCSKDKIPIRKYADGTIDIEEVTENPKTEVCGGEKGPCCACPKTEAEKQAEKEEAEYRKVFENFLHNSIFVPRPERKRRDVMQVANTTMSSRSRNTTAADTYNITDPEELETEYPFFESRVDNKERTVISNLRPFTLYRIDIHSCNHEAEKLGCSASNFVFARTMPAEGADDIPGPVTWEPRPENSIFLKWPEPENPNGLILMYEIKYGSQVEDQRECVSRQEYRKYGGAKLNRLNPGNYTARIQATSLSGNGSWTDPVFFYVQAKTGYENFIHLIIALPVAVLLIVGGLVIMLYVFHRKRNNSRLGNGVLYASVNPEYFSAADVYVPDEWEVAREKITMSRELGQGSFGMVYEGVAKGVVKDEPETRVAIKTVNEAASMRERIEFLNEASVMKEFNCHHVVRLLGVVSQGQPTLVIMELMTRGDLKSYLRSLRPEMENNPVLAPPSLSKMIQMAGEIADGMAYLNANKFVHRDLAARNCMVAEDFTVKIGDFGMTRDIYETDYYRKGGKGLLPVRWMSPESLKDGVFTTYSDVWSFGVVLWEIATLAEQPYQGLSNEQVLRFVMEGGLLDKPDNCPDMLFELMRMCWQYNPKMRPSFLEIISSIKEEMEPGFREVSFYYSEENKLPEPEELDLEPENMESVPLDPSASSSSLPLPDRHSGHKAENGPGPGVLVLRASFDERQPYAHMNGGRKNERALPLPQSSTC

| SMILES | IC50 [nM] |
| --- | --- |
| Nc1ncnc2c1c(-c1ccc3c(c1)OC(c1ccccn1)CC3)cn2[C@H]1C[C@@H](CN2CCS(=O)(=O)CC2)C1 (mixture of isomers) [Example 54, (±)-7-(cis-3-(1,1-dioxo-thiomorpholin-4-ylmethyl)cyclobutyl)-5-(2-(pyridin-2-yl)chroman-7-yl)-7H-pyrrolo[2,3-d]pyrimidin-4-amine] | 45 |
| CC(=O)N[C@H]1CC[C@@H](n2cc(-c3ccc4c(c3)OC(c3ccccc3)CC4)c3c(N)ncnc32)CC1 (mixture of isomers) [Example 55, (±)-N-(cis-4-(4-amino-5-(2-phenylchroman-7-yl)-7H-pyrrolo[2,3-d]pyrimidin-7-yl)cyclohexyl)acetamide] | 108 |
| Nc1ncnc2c1c(-c1ccc3c(c1)OC(c1ccccn1)CC3)cn2[C@H]1C[C@@](O)(CO)C1 (mixture of isomers) [Example 56, (±)-(E)-3-(4-amino-5-(2-(pyridin-2-yl)chroman-7-yl)-7H-pyrrolo[2,3-d]pyrimidin-7-yl)-1-(hydroxymethyl)cyclobutanol] | 548 |
| Nc1ncnc2c1c(-c1ccc3c(c1)OC(c1ccccn1)CC3)cn2[C@H]1C[C@@H](CN2CC[S+]([O-])CC2)C1 (mixture of isomers) [Example 63, (±)-7-(cis-3-(1-oxo-thiomorpholin-4-ylmethyl)cyclobutyl)-5-(2-(pyridin-2-yl)chroman-7-yl)-7H-pyrrolo[2,3-d]pyrimidin-4-amine] | 109 |
| Nc1ncnc2c1c(-c1ccc3c(c1)OC(C1CCCO1)CC3)cn2[C@H]1CC[C@@H](N2CCS(=O)(=O)CC2)CC1 (mixture of isomers) [Example 64, (±)-7-[cis-4-(1,1-dioxo-1λ6-thiomorpholin-4-yl)-cyclohexyl]-5-[2-trans-(tetrahydro-furan-2-yl)chroman-7-yl]-7H-pyrrolo[2,3-d]pyrimidin-4-ylamine] | 59 |
| Nc1ncnc2c1c(-c1ccc3c(c1)OC(C1CCCO1)CC3)cn2[C@H]1CC[C@@H](N2CCS(=O)(=O)CC2)CC1 (mixture of isomers) [Example 65, (±)-7-[cis-4-(1,1-dioxo-1λ6-thiomorpholin-4-yl)-cyclohexyl]-5-[2-cis-(tetrahydro-furan-2-yl)chroman-7-yl]-7H-pyrrolo[2,3-d]pyrimidin-4-ylamine] | 39 |
| Nc1nccn2c1c(-c1ccc3c(c1)O[C@@H](c1ccccc1)C=C3)nc2[C@H]1C[C@@H](CO)C1 (relative stereo) [Example 22, (R,S)-{cis-3-[8-Amino-1-(2-phenyl-2H-chromen-7-yl)-imidazo[1,5-a]pyrazin-3-yl]-cyclobutyl}-methanol] | 179 |
| Nc1nccn2c1c(-c1ccc3c(c1)OC(c1ccccc1)CC3)nc2[C@H]1C[C@@H](Cn2ccnc2CO)C1 (relative stereo) [Example 39, (1-{cis-3-[8-Amino-1-(2-phenyl-chroman-7-yl)-imidazo[1,5-a]pyrazin-3-yl]-cyclobutylmethyl}-1H-imidazol-2-yl)-methanol] | 218 |
| Nc1ncnc2c1c(-c1ccc3c(c1)OC(c1ccccc1)CC3)cn2[C@H]1C[C@@H](O)C1 (relative stereo) [Example 48, cis-3-[4-Amino-5-(2-phenyl-chroman-7-yl)-pyrrolo[2,3-d]pyrimidin-7-yl]-cyclobutanol] | 88 |
| Nc1ncnc2c1c(-c1ccc3c(c1)OC(c1ccccc1)CC3)cn2[C@H]1C[C@H](O)C1 (relative stereo) [Example 49, trans-3-[4-Amino-5-(2-phenyl-chroman-7-yl)-pyrrolo[2,3-d]pyrimidin-7-yl]-cyclobutanol] | 96 |
| CCOCC1CCc2ccc(-c3cn([C@H]4C[C@@H](CN5CC[S+]([O-])CC5)C4)c4ncnc(N)c34)cc2O1 (relative stereo) [Example 50, 5-(2-Ethoxymethyl-chroman-7-yl)-7-[cis-3-(1-oxo-thiomorpholin-4-ylmethyl)-cyclobutyl]-7H-pyrrolo[2,3-d]pyrimidin-4-ylamine] | 36 |
| Nc1ncnc2c1c(-c1ccc3c(c1)OC(c1ccccc1)CC3)cn2C1CC(O)(CO)C1 (single isomer, unassigned) [Example 27] | 31 to 112 |
| Nc1ncnc2c1c(-c1ccc3c(c1)OC(C1CCCO1)CC3)cn2C1CC(CN2CCS(=O)(=O)CC2)C1 (single isomer, unassigned) [Example 30, (I)-7-[cis-3-(1,1-Dioxo-1-thiomorpholin-4-ylmethyl)-cyclobutyl]-5-[2-(tetrahydro-furan-2-yl)-chroman-7-yl]-7H-pyrrolo[2,3-d]pyrimidin-4-ylamine] | 4 to 5 |
| Nc1ncnc2c1c(-c1ccc3c(c1)OC(C1CCCO1)CC3)cn2C1CC(CN2CCS(=O)(=O)CC2)C1 (single isomer, unassigned) [Example 31, (u)-7-[3-(1,1-Dioxo-1-thiomorpholin-4-ylmethyl)-cyclobutyl]-5-[2-(tetrahydro-furan-2-yl)-chroman-7-yl]-7H-pyrrolo[2,3-d]pyrimidin-4-ylamine] | 7 |
| Nc1ncnc2c1c(-c1ccc3c(c1)OC(C1CCCO1)CC3)cn2C1CC(O)(CO)C1 (single isomer, unassigned) [Example 32, (I)-(E)-3-{4-Amino-5-[2-(tetrahydro-furan-2-yl)-chroman-7-yl]-pyrrolo[2,3-d]pyrimidin-7-yl}-1-hydroxymethyl-cyclobutanol] | 183 |
| Nc1ncnc2c1c(-c1ccc3c(c1)OC(C1CCCO1)CC3)cn2C1CC(O)(CO)C1 (single isomer, unassigned) [Example 33, (u)-(E)-3-{4-amino-5-[2-(tetrahydro-furan-2-yl)-chroman-7-yl]-pyrrolo[2,3-d]pyrimidin-7-yl}-1-hydroxymethyl-cyclobutanol] | 395 |
| Nc1ncnc2c1c(-c1ccc3c(c1)OC(C1CCCO1)CC3)cn2C1CC(O)(CO)C1 (single isomer, unassigned) [Example 35] | 55 |
| Nc1ncnc2c1c(-c1ccc3c(c1)OC(c1ccccc1)CC3)cn2C1CC(O)(CO)C1 (single isomer, unassigned) [Example 41, (Z)-3-K-Amino-5-(2-phenyl-chroman-7-yl)-pyrrolo[2,3-d]pyrimidin-7-yl]-1-hydroxymethyl-cyclobutanol] | 44 to 143 |
| Nc1ncnc2c1c(-c1ccc3c(c1)OC(c1ccccc1)CC3)cn2C1CC(O)(CO)C1 (single isomer, unassigned) [Example 42, (Z)-3-K-Amino-5-(2-phenyl-chroman-7-yl)-pyrrolo[2,3-d]pyrimidin-7-yl]-1-hydroxymethyl-cyclobutanol] | 272 to 338 |
| Nc1ncnc2c1c(-c1ccc3c(c1)O[C@H](c1ccccc1)CC3)cn2[C@H]1C[C@@H](CO)C1 [Example 11, {cis-3-[4-Amino-5-((S)-2-phenyl-chroman-7-yl)-pyrrolo[2,3-d]pyrimidin-7-yl]-cyclobutyl}-methanol] | 19 |
| Nc1ncnc2c1c(-c1ccc3c(c1)O[C@@H](c1ccccc1)CC3)cn2[C@H]1C[C@@H](CO)C1 [Example 12, {cis-3-[4-Amino-5-((R)-2-phenyl-chroman-7-yl)-pyrrolo[2,3-d]pyrimidin-7-yl]-cyclobutyl}-methanol] | 55 |
| CC1(O)CC(c2nc(-c3ccc4c(c3)O[C@@H](c3ccccc3)CC4)c3c(N)nccn23)C1 (stereo partly drawn) [Example 19, (R,S)—(Z)-3-[8-Amino-1-(2-phenyl-chroman-7-yl)-imidazo[1,5-a]pyrazin-3-yl]-1-methylcyclobutanol] | 158 |
